#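 Method: 48-hour compound exposure of cells in 96-well plates, five concentrations, linear interpolation of endpoints. TGI denotes the concentration required for complete inhibition of growth.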
# How the values were obtained:
# Experiment in all cases: growth of human tumour cells (NCI), 48 h
# TK-10 renal = system: TK-10 renal
# K-562 leukemia = system: K-562 leukemia
# MDA-MB-231 breast = system: MDA-MB-231 breast
# NCI-H522 lung = system: NCI-H522 lung
# SF-268 CNS = system: SF-268 CNS
# M14 melanoma = system: M14 melanoma
# SNB-75 CNS = system: SNB-75 CNS
# T-47D breast = system: T-47D breast
# SF-295 CNS = system: SF-295 CNS
# HL-60(TB) leukemia = system: HL-60(TB) leukemia
# HT29 colon = system: HT29 colon
# RXF 393 renal = system: RXF 393 renal
# RPMI-8226 leukemia = system: RPMI-8226 leukemia
# OVCAR-3 ovarian = system: OVCAR-3 ovarian
# NCI-H23 lung = system: NCI-H23 lung
# HCT-15 colon = system: HCT-15 colon
# HS 578T breast = system: HS 578T breast
# SK-MEL-2 melanoma = system: SK-MEL-2 melanoma
# SK-MEL-5 melanoma = system: SK-MEL-5 melanoma
# OVCAR-8 ovarian = system: OVCAR-8 ovarian
# A549 NSCLC = system: A549 NSCLC
# PC-3 prostate = system: PC-3 prostate
# SK-MEL-28 melanoma = system: SK-MEL-28 melanoma
# NCI-H226 lung = system: NCI-H226 lung
# OVCAR-5 ovarian = system: OVCAR-5 ovarian
# COLO 205 colon = system: COLO 205 colon
# MOLT-4 leukemia = system: MOLT-4 leukemia
# CAKI-1 renal = system: CAKI-1 renal
# KM12 colon = system: KM12 colon
# IGROV1 ovarian = system: IGROV1 ovarian
# SR leukemia = system: SR leukemia
# BT-549 breast = system: BT-549 breast
# EKVX NSCLC = system: EKVX NSCLC
# NCI-H460 lung = system: NCI-H460 lung
# A498 renal = system: A498 renal
# SW-620 colon = system: SW-620 colon
# HCC-2998 colon = system: HCC-2998 colon
# UACC-62 melanoma = system: UACC-62 melanoma
# U251 CNS = system: U251 CNS
# SNB-19 CNS = system: SNB-19 CNS
# MDA-N = system: MDA-N
# NCI/ADR-RES ovarian = system: NCI/ADR-RES ovarian
# DU-145 prostate = system: DU-145 prostate
# SK-OV-3 ovarian = system: SK-OV-3 ovarian
# HOP-62 NSCLC = system: HOP-62 NSCLC
# MCF7 breast = system: MCF7 breast
# CCRF-CEM leukemia = system: CCRF-CEM leukemia
# SF-539 CNS = system: SF-539 CNS
# OVCAR-4 ovarian = system: OVCAR-4 ovarian
# HCT-116 colon = system: HCT-116 colon
# HOP-92 NSCLC = system: HOP-92 NSCLC
# UO-31 renal = system: UO-31 renal
# MALME-3M melanoma = system: MALME-3M melanoma
# 786-0 renal = system: 786-0 renal
# LOX IMVI melanoma = system: LOX IMVI melanoma
# UACC-257 melanoma = system: UACC-257 melanoma
# SN12C renal = system: SN12C renal
# MDA-MB-435 = system: MDA-MB-435
# ACHN renal = system: ACHN renal
structure (smiles),measurement,setting,value
CCN(CC)CCCNc1[nH]ncc2c(C)c3nc4ccc(OC)cc4c3cc12,TGI,TK-10 renal,9.16 µM
same,TGI,K-562 leukemia,1.64 µM
same,TGI,MDA-MB-231 breast,2.65 µM
same,TGI,NCI-H522 lung,0.639 µM
same,TGI,SF-268 CNS,3.52 µM
same,TGI,M14 melanoma,3.26 µM
same,TGI,SNB-75 CNS,2.1 µM
same,TGI,T-47D breast,3.36 µM
same,TGI,SF-295 CNS,6.48 µM
same,TGI,HL-60(TB) leukemia,2.9 µM
same,TGI,HT29 colon,6.04 µM
same,TGI,RXF 393 renal,3.37 µM
same,TGI,RPMI-8226 leukemia,2.69 µM
same,TGI,OVCAR-3 ovarian,2.99 µM
same,TGI,NCI-H23 lung,1.97 µM
same,TGI,HCT-15 colon,36.3 µM
same,TGI,HS 578T breast,4.25 µM
same,TGI,SK-MEL-2 melanoma,3.01 µM
same,TGI,SK-MEL-5 melanoma,2.83 µM
same,TGI,OVCAR-8 ovarian,2.01 µM
same,TGI,A549 NSCLC,2.73 µM
same,TGI,PC-3 prostate,1.73 µM
same,TGI,SK-MEL-28 melanoma,2.01 µM
same,TGI,NCI-H226 lung,1.7 µM
same,TGI,OVCAR-5 ovarian,6.66 µM
same,TGI,COLO 205 colon,2.89 µM
same,TGI,MOLT-4 leukemia,0.0904 µM
same,TGI,CAKI-1 renal,29.3 µM
same,TGI,KM12 colon,4.49 µM
same,TGI,IGROV1 ovarian,2.91 µM
same,TGI,SR leukemia,1.76 µM
same,TGI,BT-549 breast,3.19 µM
same,TGI,EKVX NSCLC,10.9 µM
same,TGI,NCI-H460 lung,4.66 µM
same,TGI,A498 renal,6.35 µM
same,TGI,SW-620 colon,1.58 µM
same,TGI,HCC-2998 colon,2.33 µM
same,TGI,UACC-62 melanoma,2.74 µM
same,TGI,U251 CNS,1.77 µM
same,TGI,SNB-19 CNS,1.21 µM
same,TGI,MDA-N,1.93 µM
same,TGI,NCI/ADR-RES ovarian,> 100 µM
same,TGI,DU-145 prostate,8.24 µM
same,TGI,SK-OV-3 ovarian,5.33 µM
same,TGI,HOP-62 NSCLC,4.16 µM
same,TGI,MCF7 breast,1.28 µM
same,TGI,CCRF-CEM leukemia,2 µM
same,TGI,SF-539 CNS,1.16 µM
same,TGI,OVCAR-4 ovarian,2.75 µM
same,TGI,HCT-116 colon,1.41 µM
same,TGI,HOP-92 NSCLC,3.14 µM
same,TGI,UO-31 renal,15 µM
same,TGI,MALME-3M melanoma,2.36 µM
same,TGI,786-0 renal,2.28 µM
same,TGI,LOX IMVI melanoma,0.829 µM
same,TGI,UACC-257 melanoma,7.18 µM
same,TGI,SN12C renal,1.77 µM
same,TGI,MDA-MB-435,2.46 µM
same,TGI,ACHN renal,5.95 µM

# From PubChem BioAssay (NCI)
